From patent US20100204265A1 (priority 2009, published 2010)

Test system: ET (Huh-lucubineo-ET) cell line harboring I389luc-ubi-neo/NS3-3′/ET HCV replicon
Assay: Replicon assay (HCV replicon, luciferase readout)
Type: cell-based
Conditions: Hepatitis C virus
Description: A cell line, ET (Huh-lucubineo-ET) is used for screening of compounds for inhibiting HCV RNA dependent RNA polymerase. The ET cell line is stably transfected with RNA transcripts harboring a I389luc-ubi-neo/NS3-3′/ET; replicon with firefly luciferase-ubiquitin-neomycin phosphotransferase fusion protein and EMCV-IRES driven NS3-5B polyprotein containing the cell culture adaptive mutations (E1202G; T1280I; K1846T) (Krieger at al, 2001 and unpublished). The ET cells are grown in DMEM (Dulbeco's Modified Eagle's Medium), supplemented with 10% fetal calf serum, 2 mM Glutamine, Penicillin (100 IU/mL)/Streptomycin (100 μg/mL), 1× nonessential amino acids, and 250 μg/mL G418 (“Geneticin”). They are all available through Life Technologies (Bethesda, Md.). The cells are plated at 0.5−1.0×10^4 cells/well in the 96 well plates and incubated for 24 hrs before adding test compound. The compounds are added to the cells to achieve a final concentration of 0.1 nM to […] and a final DMSO (dimethylsulfoxide) concentration of 0.5%. Luciferase activity is measured 48-72 hours later by adding a lysis buffer and the substrate (Catalog number Glo-lysis buffer E2661 and Bright-Glo luciferase system E2620 Promega, Madison, Wis.). Cells should not be too confluent during the assay. Percent inhibition of replication data is plotted relative to no compound control. Under the same condition, cytotoxicity of the compounds are determined using cell proliferation reagent, WST-1 (Roche, Germany). The compounds showing antiviral activities, but no significant cytotoxicities are chosen to determine EC50 and TC50. For these determinations, a 10 point, 2-fold serial dilution for each compound was used, which spans a concentration range of 1000 fold. EC50 and similarly TC50 values were calculated by fitting % inhibition at each concentration to the following equation:
% inhibition=100%/[(EC50/[I])^b+1]
where b is Hill's coefficient.

SMILES | EC50 [µM]
O=C(c1nc2c(C(F)(F)F)cc(-c3cn[nH]c3)cn2c1Cl)N1CC=C(c2cnsc2)C1 [Compound 107, [3-Chloro-6-(1H-pyrazol-4-yl)-8-trifluoromethyl-imidazo [1,2-a]pyridin-2-yl]-(3-isothiazol-4-yl-2,5-dihydro-pyrrol-1-yl)-methanone] | 0.241
COC(=O)C(CCSC)NC(=O)c1cn2cc(-c3ccoc3)cc(C(F)(F)F)c2n1 (centres unmarked) [Compound 251, 2-[(6-Furan-3-yl-8-trifluoromethyl-imidazo[1,2-a]pyridine-2-carbonyl)-amino]-4-methylsulfanyl-butyric acid methyl ester] | > 50
O=C(c1nc2c(C(F)(F)F)cc(-c3ccoc3)cn2c1Cl)N1CCC(N2CCCC2)CC1 [Compound 195, (3-Chloro-6-furan-3-yl-8-trifluoromethyl-imidazo[1,2-a]pyridin-2-yl)-(4-pyrrolidin-1-yl-piperidin-1-yl)-methanone] | > 50
CC(C(=O)NCc1cn2cc(-c3ccoc3)cc(C(F)(F)F)c2n1)N(C)C (centres unmarked) [Compound 262, 2-Dimethylamino-N-(6-furan-3-yl-8-trifluoromethyl-imidazo[1,2-a]pyridin-2-ylmethyl)-propionamide] | > 50
O=C(c1nc2c(C(F)(F)F)cc(-c3cn[nH]c3)cn2c1Cl)N1CC=C(c2c[nH]cn2)C1 [Compound 104, [3-Chloro-6-(1H-pyrazol-4-yl)-8-trifluoromethyl-imidazo[1,2-a]pyridin-2-yl]-[3-(1H-imidazol-4-yl)-2,5-dihydro-pyrrol-1-yl]-methanone] | 5.96
O=C(c1nc2c(C(F)(F)F)cc(-c3ccoc3)cn2c1Cl)N1CCC(N2CCCCC2=O)CC1 [Compound 114, 1′-(3-Chloro-6-furan-3-yl-8-trifluoromethyl-imidazo[1,2-a]pyridine-2-carbonyl)-[1,4′]bipiperidinyl-2-one] | 1.33
COC(=O)C(C)NC(=O)Cc1cn2cc(-c3ccoc3)cc(C(F)(F)F)c2n1 (centres unmarked) [Compound 304, 2-[2-(6-Furan-3-yl-8-trifluoromethyl-imidazo[1,2-a]pyridin-2-yl)-acetylamino]-propionic acid methyl ester] | > 50
O=C(c1nc2c(C(F)(F)F)cc(-c3ccoc3)cn2c1Cl)N1CC=C(c2ncc[nH]2)CC1 [Compound 111, (3-Chloro-6-furan-3-yl-8-trifluoromethyl-imidazo[1,2-a]pyridin-2-yl)-[4-(1H-imidazol-2-yl)-3,6-dihydro-2H-pyridin-1-yl]-methanone] | > 50
COC(=O)C(NC(=O)c1cn2cc(-c3ccoc3)cc(C(F)(F)F)c2n1)C(C)(C)C (centres unmarked) [Compound 154, 2-[(6-Furan-3-yl-8-trifluoromethyl-imidazo[1,2-a]pyridine-2-carbonyl)-amino]-3,3-dimethyl-butyric acid methyl ester] | 27.7
CC(C)CS(=O)(=O)NCc1cn2cc(-c3ccoc3)cc(C(F)(F)F)c2n1 [Compound 232, 2-Methyl-propane-1-sulfonic acid (6-furan-3-yl-8-trifluoromethyl-imidazo[1,2-a]pyridin-2-ylmethyl)-amide] | > 50
O=C(c1nc2c(C(F)(F)F)cc(-c3ccccc3)cn2c1Cl)N1CC=C(c2nccs2)C1 [Compound 215, (3-Chloro-6-phenyl-8-trifluoromethyl-imidazo[1,2-a]pyridin-2-yl)-(3-thiazol-2-yl-2,5-dihydro-pyrrol-1-yl)-methanone] | 0.0322
COC(=O)C(Cc1cnc[nH]1)NC(=O)c1cn2cc(-c3ccoc3)cc(C(F)(F)F)c2n1 (centres unmarked) [Compound 155, 2-[(6-Furan-3-yl-8-trifluoromethyl-imidazo[1,2-a]pyridine-2-carbonyl)-amino]-3-(3H-imidazol-4-yl)-propionic acid methyl ester] | 44.5
O=C(c1cn2cc(-c3coc(Br)c3)cc(C(F)(F)F)c2n1)N1CC(NS(=O)(=O)C2CC2)C1 [Compound 147, Cyclopropanesulfonic acid {1-[6-(5-bromo-furan-3-yl)-8-trifluoromethyl-imidazo[1,2-a]pyridine-2-carbonyl]-azetidin-3-yl}-amide] | 3.99
O=C(c1nc2c(C(F)(F)F)cc(-c3ccoc3)cn2c1Cl)N1CC=C(/C=C/C2CC2)CC1 [Compound 212, (3-Chloro-6-furan-3-yl-8-trifluoromethyl-imidazo[1,2-a]pyridin-2-yl)-[4-(2-cyclopropyl-vinyl)-3,6-dihydro-2H-pyridin-1-yl]-methanone] | 0.338
COC(=O)C(C)NC(=O)c1cn2cc(-c3ccoc3)cc(C(F)(F)F)c2n1 (centres unmarked) [Compound 250, 2-[(6-Furan-3-yl-8-trifluoromethyl-imidazo[1,2-a]pyridine-2-carbonyl)-amino]-propionic acid methyl ester] | > 50
CS(=O)(=O)N1CCN(C(=O)c2nc3c(C(F)(F)F)cc(-c4ccoc4)cn3c2Cl)CC1 [Compound 108, (3-Chloro-6-furan-3-yl-8-trifluoromethyl-imidazo[1,2-a]pyridin-2-yl)-(4-methanesulfonyl-piperazin-1-yl)-methanone] | 24.1
O=C(c1nc2c(C(F)(F)F)cc(-c3cn[nH]c3)cn2c1Cl)N1CC=C(c2cn[nH]c2)CC1 [Compound 112, [3-Chloro-6-(1H-pyrazol-4-yl)-8-trifluoromethyl-imidazo[1,2-a]pyridin-2-yl]-[4-(1H-pyrazol-4-yl)-3,6-dihydro-2H-pyridin-1-yl]-methanone] | 0.368
CC(=O)NC(Cc1ccccc1)C(=O)NCc1cn2cc(-c3ccoc3)cc(C(F)(F)F)c2n1 (centres unmarked) [Compound 260, 2-Acetylamino-N-(6-furan-3-yl-8-trifluoromethyl-imidazo[1,2-a]pyridin-2-ylmethyl)-3-phenyl-propionamide] | > 50
CN(C)C(=O)[C@H]1CCCN1C(=O)Cc1cn2cc(-c3ccoc3)cc(C(F)(F)F)c2n1 [Compound 314, 1-[2-(6-Furan-3-yl-8-trifluoromethyl-imidazo[1,2-a]pyridin-2-yl)-acetyl]-pyrrolidine-2-carboxylic acid dimethylamide] | > 50
CC(C)[C@H](NC(=O)Cc1cn2cc(-c3ccoc3)cc(C(F)(F)F)c2n1)C(N)=O [Compound 297, 2-[2-(6-Furan-3-yl-8-trifluoromethyl-imidazol[1,2-a]pyridin-2-yl)-acetylamino]-3-methyl-butyramide] | > 50
O=C(c1nc2c(C(F)(F)F)cc(-c3ccoc3)cn2c1Cl)N1CC=C(c2cc(F)ccn2)CC1 [Compound 209, (3-Chloro-6-furan-3-yl-8-trifluoromethyl-imidazo[1,2-a]pyridin-2-yl)-(4-fluoro-3′,6′-dihydro-2′H-[2,4′]bipyridinyl-1′-yl)-methanone] | 0.399
COC(=O)CCNC(=O)Cc1cn2cc(-c3ccoc3)cc(C(F)(F)F)c2n1 [Compound 295, 3-[2-(6-Furan-3-yl-8-trifluoromethyl-imidazo[1,2-a]pyridin-2-yl)-acetylamino]-propionic acid methyl ester] | > 50
CCOc1cccnc1C1=CCN(C(=O)c2nc3c(C(F)(F)F)cc(-c4ccoc4)cn3c2Cl)CC1 [Compound 115, (3-Chloro-6-furan-3-yl-8-trifluoromethyl-imidazo[1,2-a]pyridin-2-yl)-(3-ethoxy-3′,6′-dihydro-2′H-[2,4′]bipyridinyl-1′-yl)-methanone] | 22.5
Clc1ccc(Cn2c(CN3CCCC3)nc3ccccc32)cc1 [Compound 235, 1-(4-Chloro-benzyl)-2-pyrrolidin-1-ylmethyl-1H-benzoimidazole] | 40.2
O=C(Cc1cn2cc(-c3ccoc3)cc(C(F)(F)F)c2n1)NS(=O)(=O)c1cccs1 [Compound 189, Thiophene-2-sulfonic acid [2-(6-furan-3-yl-8-trifluoromethyl-imidazo[1,2-a]pyridin-2-yl)-acetyl]-amide] | > 50
COC(=O)C(Cc1ccccc1)NC(=O)c1cn2cc(-c3ccoc3)cc(C(F)(F)F)c2n1 (centres unmarked) [Compound 157, 2-[(6-Furan-3-yl-8-trifluoromethyl-imidazo[1,2-a]pyridine-2-carbonyl)-amino]-3-phenyl-propionic acid methyl ester] | > 50
O=C(c1nc2c(C(F)(F)F)cc(-c3ccoc3)cn2c1CO)N1CC=C(c2nccs2)C1 [Compound 170, (6-Furan-3-yl-3-hydroxymethyl-8-trifluoromethyl-imidazo[1,2-a]pyridin-2-yl)-(3-thiazol-2-yl-2,5-dihydro-pyrrol-1-yl) methanone] | 0.026
CC(C)C(NC(=O)c1cn2cc(-c3ccoc3)cc(C(F)(F)F)c2n1)C(N)=O (centres unmarked) [Compound 278, 6-Furan-3-yl-8-trifluoromethyl-imidazo[1,2-a]pyridine-2-carboxylic acid (1-carbamoyl-2-methyl-propyl)-amide] | > 50
CC(O)C(NC(=O)c1cn2cc(-c3ccoc3)cc(C(F)(F)F)c2n1)C(N)=O (centres unmarked) [Compound 282, 6-Furan-3-yl-8-trifluoromethyl-imidazo[1,2-a]pyridine-2-carboxylic acid (1-carbamoyl-2-hydroxy-propyl)-amide] | > 50
